Values quoted from earlier work as cited in patent US20060148877A1, “Pharmaceutical formulations of celcoxib” (TransForm Pharmaceuticals, Inc., priority 2002, published 2006).

Details: commercially available form (CELEBREX), neutral molecule

With `Cc1ccc(-c2cc(C(F)(F)F)nn2-c2ccc(S(N)(=O)=O)cc2)cc1` [celecoxib, 4-[5-(4-methylphenyl)-3-(trifluoromethyl)-1H-pyrazol-1-yl]benzenesulfonamide] as the compound, how does the solubility in water read?
Its solubility in water is “essentially insoluble in water”.
